Source: patent US10858360B2, “Tricyclic gyrase inhibitors” (priority 2011, dated 2020)
Values after ≈ are worked out from the molar mass of the structure shown.

Legend:
[1] = system: S. aureus ATCC 13709; test: MIC, S. aureus ATCC 13709 (Alamar Blue broth microdilution); assay type: cell-based; settings: Alamar Blue read after overnight incubation at 35° C.; for MIC: Staphylococcus aureus, ATCC13709, S. aureus; for MIC Sa: S. aureus
[2] = system: E. coli ATCC 25922; test: MIC, E. coli ATCC 25922; assay type: cell-based; settings: Alamar Blue read after overnight incubation at 35° C.; for MIC: Escherichia coli, ATCC25922, E. coli; for MIC Ec: E. coli

SMILES	MIC [1] [µg/mL]	MIC [2] [µg/mL]	MIC Sa [1] [µg/mL]	MIC Ec [2] [µg/mL]
CNc1cccc2c1[nH]c1nc(Sc3cnc4cccnc4c3)nc(N3CCN(c4cnccn4)CC3)c12 [1.54]	≤ 0.5	> 64		
CNc1cc(F)cc2c1[nH]c1nc(Oc3ccc(C#N)nc3)nc(N3CCC(N)C3)c12 (centres unmarked) [4.331]			≤0.5	≤0.5
CCNc1cccc2c1[nH]c1nc(Sc3cnc4ccc[n+]([O-])c4c3)nc(N3CC4C(N)C4C3)c12 (centres unmarked) [1.10]	≤ 0.5	4 (≈ 8.25 µM)		
CNc1cc(F)cc2c1[nH]c1nc(Oc3cnc(COC)nc3)nc(N3CC(N)C4(CC4)C3)c12 (centres unmarked) [4.343]			≤0.5	≤0.5
CNc1cc(F)cc2c1[nH]c1nc(Oc3cnc(CCO)nc3)nc(N3CC4CC3C[C@@H]4N)c12 (some centres unmarked) [4.414]	≤ 0.5	2 (≈ 4.31 µM)		
CNc1nccc2c1[nH]c1nc(Sc3cnc4nccnc4c3)nc(N3CC[C@@H](N)C3)c12 [7.01]	8 (≈ 18 µM)	> 64		
CNc1cc(F)cc2c1[nH]c1nc(Oc3cnc(N)nc3)nc(N3C[C@H]4CCN[C@H]4C3)c12 [4.187]	≤ 0.5	2 (≈ 4.59 µM)		
CNc1cccc2c1[nH]c1nc(Oc3ccc(C(=O)O)nc3)nc(N3CC4C(N)C4C3)c12 (centres unmarked) [3.22]	16 (≈ 37.1 µM)	64 (≈ 148 µM)		
CNc1cc(F)cc2c1[nH]c1nc(Oc3cnc4cccnc4c3)nc(N3C[C@@H]4[C@H](C3)[C@@]4(N)C(N)=O)c12 [4.039]	≤ 0.5	2 (≈ 4 µM)		
CNc1cccc2c1[nH]c1nc(Oc3cncnc3)nc(N3CCC(CN)C3)c12 (centres unmarked) [3.58]	32 (≈ 82 µM)	> 64		
Cc1ncc(Oc2nc(N3CC(N)C4(CC4)C3)c3c(n2)[nH]c2c(N)cc(F)cc23)cn1 (centres unmarked) [2.9]			16 (≈ 38.1 µM)	16 (≈ 38.1 µM)
CNc1cccc2c1[nH]c1nc(Oc3cncc(C#N)c3)nc(N3CCN(CCN)CC3)c12 [3.55]	64 (≈ 144 µM)	> 64		
CNc1cc(F)cc2c1[nH]c1nc(Oc3cnc(C(C)C)nc3)nc(N3C[C@H](N)C4(CC4)C3)c12 [4.233]	≤ 0.5	1 (≈ 2.16 µM)		
CNc1cccc2c1[nH]c1nc(Sc3cnc4cccnc4c3)nc(N3CC4CNCC4C3)c12 (centres unmarked) [1.55]	1 (≈ 2.13 µM)	8 (≈ 17.1 µM)		
CNc1cc(F)cc2c1[nH]c1nc(Oc3cncnc3)nc(N3CC[C@@]4(C[C@H]4N)C3)c12 [4.014]	≤ 0.5	1 (≈ 2.38 µM)		
CNc1cccc2c1[nH]c1nc(Sc3cnc4cccnc4c3)nc(N3CCNCC3)c12 [1.46]	2 (≈ 4.52 µM)	4 (≈ 9.04 µM)		

SMILES	MIC [1] [µg/mL]	MIC [2] [µg/mL]	MIC Sa [1] [µg/mL]	MIC Ec [2] [µg/mL]
CNc1cc(F)cc2c1[nH]c1nc(Oc3cnc4ccoc4c3)nc(N3CC4CC(N)C4C3)c12 (centres unmarked) [4.290]	≤ 0.5	≤ 0.5		
CNc1c(F)ccc2c1[nH]c1nc(Oc3cnc(C)nc3)nc(N3CC[C@@H](N)C3)c12 [6.01]	≤ 0.5	1 (≈ 2.45 µM)		
CNc1cccc2c1[nH]c1nc(Sc3ccc4ccc(C(=O)O)nc4c3)nc(N3CC4C(N)C4C3)c12 (centres unmarked) [1.74]	4 (≈ 8.04 µM)	> 64		
CNc1cc(F)cc2c1[nH]c1nc(Oc3cnc(C)nc3)nc(N3CCC4(CNC4)C3)c12 [4.125]			≤0.5	4 (≈ 9.21 µM)
CNc1cc(F)cc2c1[nH]c1nc(Oc3cnc4ccoc4c3)nc(N3CC4CCC(N)C4C3)c12 (centres unmarked) [4.293]			≤0.5	1 (≈ 2.11 µM)
CNc1cc(F)cc2c1[nH]c1nc(Oc3cnc(C4CC4)nc3)nc(N3CC4NCCCC43)c12 (centres unmarked) [4.247]	1 (≈ 2.17 µM)	8 (≈ 17.4 µM)		
CNc1cccc2c1[nH]c1nc(Sc3cnc4cccnc4c3)nc(N3CC(N)C3)c12 [1.29]	1 (≈ 2.33 µM)	> 64		
CNc1cc(F)cc2c1[nH]c1nc(Oc3cnc(COC)nc3)nc(N3CC4CC(N)C4C3)c12 (centres unmarked) [4.344]	≤ 0.5	2 (≈ 4.31 µM)		
CNc1cccc2c1[nH]c1nc(Oc3cnc4cccnc4c3)nc(N3CC(N)C4(CC4)C3)c12 (centres unmarked) [3.52]	≤ 0.5	≤ 0.5		
CNc1cc(F)cc2c1[nH]c1nc(Oc3cnc(CC(=O)N4CC(N(C)C)C4)nc3)nc(N3C[C@H](N)C4(CC4)C3)c12 [4.373]	2 (≈ 3.57 µM)	8 (≈ 14.3 µM)		
CNc1cc(F)cc2c1[nH]c1nc(Oc3cnc(C(C)(C)N)nc3)nc(N3C[C@H]4CC3C[C@H]4N)c12 [4.442]	1 (≈ 2.09 µM)	2 (≈ 4.19 µM)		
CNc1cc(F)cc2c1[nH]c1nc(Oc3cnc(N)nc3)nc(N3CC4CCC(N)C4C3)c12 (centres unmarked) [4.189]	≤ 0.5	2 (≈ 4.45 µM)		
CNc1cc(F)cc2c1[nH]c1nc(Oc3cnc4c(c3)C(=O)N(C)C4C)nc(N3CC4CC3C[C@@H]4N)c12 (some centres unmarked) [4.398]	≤ 0.5	≤ 0.5		
COc1cccc2c1[nH]c1nc(Oc3cncnc3)nc(N3CCC(N)C3)c12 (centres unmarked) [2.10]			2 (≈ 5.3 µM)	32 (≈ 84.8 µM)
CNc1cc(F)cc2c1[nH]c1nc(Oc3cncnc3)nc(N3CCCC(C)(N)C3)c12 (centres unmarked) [4.024]	≤ 0.5	2 (≈ 4.73 µM)		
